The test system of series [1] is aconitine arrhythmia. The experiment in a line: animal or person. Format: in vivo, rats. As to conditions: for LD50/ED50 (antiarrhythmic index): LD50 i.v. / ED50 aconitine arrhythmia; for Aconitine arrhythmia ED50: concious rats, i.v. 3 min prior aconitine. The method, then:
Aconitine arrhythmia. The aconitine arrhythmia was induced in concious rats weighing 180-200 g by the injection in tail vein of the aconitine sulfate solution at dose range of […]. […] The tested compounds were administered i.v. 3 min prior aconitine injection. The ED50 value was calculated according to Litchfield's method.

For series [2] the following is noted: after i.v. injection.
For series [3], the system named is calcium chloride arrhythmia. Description: calcium chloride arrhythmia in concious rats. Format: in vivo. The settings on record: concious rats, given 2 min prior calcium chloride 250-300 mg/kg i.v. As for the experimental part:
In these experiments the outbred concious rats 180-200 g of weight were injected with 10% solution of calcium chloride in tail vein at dose range of 250-300 mg/kg.

For series [4], the system named is ventricular fibrillations. The experiment in a line: ventricular fibrillation, 7-min occlusion and reperfusion of coronary artery in anesthetized rats. The class given is in vivo. As for the experimental part: The experiments were conducted in male rats weighing 180-240 g and anesthetized with nembutal (60 mg/kg i.v.) with open chest and artificial respiration. The occlusion of the left coronary artery was performed 1-2 min after experiment beginning with following reperfusion after 7 min. During this period time according to literature data [Krzeminski T., Grzyb J., Kurcok A., Brus R.: Pol.J.Pharmacol., 1992, 44, Suppl., p.169-170] the maximum number of ventricular fibrillations (70-100%) were registered. The ECG in the 2nd standard lead was recorded in “Mingograph-81”. The number of ventricular fibrillations during occlusion and reperfusion periods, the life menacing arrhythmia (fibrillation+paroxysmal ventricular tachycardia) and total number of arrhythmias were calculated. The known antiarrhythmic drug bonnecor was used as the reference agent [Grigorieva E. K., Gorbunova V. V. in: “New antiarrhythmic drug—bonnecor (the pharmacology and clinical usage)”, M., 1993, p.64-67]. The compounds were injected i.v. at the following doses: bonnecor—1,0 mg/kg, compound IX—2,0 mg/kg, compound XX—1,0 mg/kg. The control animals were administered with the equivalent volume of physiological solution (1,0 ml/kg). 4 series of experiments were carried out in 80 rats. The results were assessed according to the method of point scale: the absence of arrhythmia—0 point, extrasystole—1 point, paroxysmal ventricular tachycardia—2 points, ventricular fibrillation—3 points, fibrillation observed during the occlusion of coronary vessel—4 points. For statistical analysis the Fisher's exact probability and Wilconson's methods were used.
[Krzeminski T., Grzyb J., Kurcok A., Brus R.: Pol.J.Pharmacol., 1992, 44, Suppl., p.169-170] have shown that 7 min occlusion with following reperfusion of coronary artery in anesthetized rats produced the ventricular fibrillation (68-100%). Defibrotide and prostacycline decreased the number of fibrillations. We have studied the antifibrillator activity of some derivatives of 2-mercaptbenzimidazole in this model with disturbances of heart rhythm. Bonnecor (1,0 mg/kg) was used as the reference drug. It is well known that this agent produces apronouncedantifibrillatoryactivity [Grigorieva E. K., Gorbunova V. V. in: “New antiarrhythmic drug-bonnecor (the pharmacology and clinical usage)”, M., 1993, p.64-67].

Structures are written as SMILES. Marks after values point to notes of the source that are not given here.

As to `CCOC(=O)Nc1ccc2c(c1)N(C(=O)CCN1CCOCC1)c1ccccc1S2` [Etmosin], in series [1], the “LD50/ED50 (antiarrhythmic index)” value was 58.6 and the “Aconitine arrhythmia ED50” value is recorded as 0.28 mg/kg. For the same compound, the “Acute toxicity LD50” value in series [2] is given as 16.4 mg/kg.
Take `CCOC(=O)Nc1ccc2c(c1)N(C(=O)CN(C)C)c1ccccc1CC2` [Bonnecor, bonnecor, reference compound]: in series [1], the “LD50/ED50 (antiarrhythmic index)” value worked out at 50 and the “Aconitine arrhythmia ED50” value is given as 0.23 mg/kg. Besides, the “Calcium chloride arrhythmia ED50 (mean effective dose)” value in series [3] was found to be 1.6 mg/kg. In addition, the “Acute toxicity LD50” value in series [2] came to 11.5 mg/kg. Besides, the “antifibrillatory effect, in words” value in series [4] (anesthetized rats i.v., bonnecor 1,0, IX 2,0, X (printed) 1,0 mg/kg) was “decreased the number of both the ventricular fibrillations and lethality hazardous arrhythmia”. Moreover, the “Number of VF (ventricular fibrillations)” value in series [4] (anesthetized rats, 1 mg/kg i.v., 18 animals, control 15 of 24) is 6*. Also, the “Number of LHA (lethality hazardous arrhythmia)” value in series [4] (anesthetized rats, 1 mg/kg i.v., 18 animals, control 22 of 24) was 12*. For the same compound, the “Total numbers of arrhyt.” value in series [4] (anesthetized rats, 1 mg/kg i.v., 18 animals, control 24 of 24) was found to be 16. Also, the Severity of arrhythmias in series [4] (anesthetized rats, 1 mg/kg i.v., 18 animals, control 66) is recorded as 36* points.

The values are drawn from patent US6376666B1 (Nauchno-Issledovatelsky Institut Farmakologii Rossiiskoi …, priority 1994, dated 2002).
